{
  "source": "patent US7605119B2",
  "about": "“Memory enhancing protein method” (The Research Foundation of State University of New York, priority 2000, dated 2009)",
  "key": {"LTP maintenance": {"tested_on": "LTP maintenance", "assay": "Reversal of LTP maintenance", "type": "cell-based", "conditions": "1 μM"}, "PKMζ [1]": {"target": "T1, PKMζ (Homo sapiens, UniProt Q05513)", "T1 construct": "made in house; host or cells: Spodoptera frugiperda Sf9 cells, baculovirus", "T1 sequence (Q05513 1-409 isoform Q05513-2)": "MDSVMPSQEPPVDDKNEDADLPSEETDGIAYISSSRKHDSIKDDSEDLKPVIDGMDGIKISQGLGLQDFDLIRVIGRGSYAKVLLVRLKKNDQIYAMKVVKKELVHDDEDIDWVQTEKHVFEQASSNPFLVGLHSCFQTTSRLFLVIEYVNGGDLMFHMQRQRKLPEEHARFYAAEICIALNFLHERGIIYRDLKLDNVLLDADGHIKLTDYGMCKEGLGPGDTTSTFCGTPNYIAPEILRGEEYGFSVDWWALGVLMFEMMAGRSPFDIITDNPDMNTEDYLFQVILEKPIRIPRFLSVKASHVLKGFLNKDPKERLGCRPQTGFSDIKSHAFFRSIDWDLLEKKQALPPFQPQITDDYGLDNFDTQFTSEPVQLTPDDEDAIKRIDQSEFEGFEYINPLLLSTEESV", "assay": "Inhibition of PKMζ (IC50)", "type": "biochemical"}, "PKC gamma": {"target": "PKC gamma (Homo sapiens, UniProt P05129)", "assay": "Inhibition of PKC gamma (IC50)", "type": "biochemical"}, "[2]": {"tested_on": "AMPA/kainate EPSCs in CA1 pyramidal cells", "assay": "Intracellular perfusion of PKMζ into CA1 pyramidal cells, whole-cell recording of evoked EPSCs", "type": "cell-based, Sprague-Dawley rats", "procedure": "PKMζ, purified from a baculovirus/Sf9 expression system to near homogeneity, was perfused into a CA1 pyramidal cell through a whole cell recording pipette (FIGS. 1A-1B). […] In order to isolate AMPA/kainate responses, the cell, recorded at the soma, was voltage-clamped at the IPSC reversal potential (˜−70) and Cs-gluconate-based electrode solution was used (to block GABAB effects). […] Over 5-10 min, there was ˜60% increase in AMPA/kainate EPSCs, which then stabilized. In contrast, inactivated PKMζ had no effect.\nHippocampal slices were prepared from Sprague-Dawley rats as described in Example 2. Patch electrodes were pulled (two-stage) from […] O.D. borosilicate glass (World Precision Instruments, Sarasota, Fla.) on a Narishige PP-83 vertical puller. Recording pipettes had tip resistances of 2-5 MΩ and contain (in mM): Cs-gluconate or K-gluconate 130-; MgCl2, 2; CaCl2, 2; EGTA, 10; HEPES, 10; Na-ATP, 2; pH adjusted to 7.25 with either CsOH or KOH. […] Cesium was used to block potassium currents, including slow GABAB IPSCs. Electrode solutions included QX-314 (10 mM) to block […] currents to prevent cell spike discharges at depolarized holding potentials. Whole-cell recordings were obtained from CA1 pyramidal cells using blind patch techniques. The recording pipette was slowly advanced through the tissue, with brief voltage steps (−10 mV, 10 ms) applied to monitor electrode resistance. Once a deflection in the electrode's current response was detected signifying contact with the membrane of the target cell soma, slight negative pressure was applied to form a cell-electrode seal of >1 GΩ.\nMembrane breakthrough was accomplished with either additional suction or current pulses. […] Signals were recorded under voltage-clamp with an Axoclamp 2A amplifier (Axon Instruments, Foster City, Calif.). Resting input resistance was measured from the current response to a −10 mV voltage step from holding potential. […]\nThe effects of PKMζ cell injection on excitatory synaptic currents were assessed by including the kinase in the whole-cell pipette and measuring EPSC amplitude over time. […]"}, "PKMζ [3]": {"target": "T1, PKMζ", "assay": "Inhibition of phosphorylation of exogenous substrates by various protein kinases (specificity of chelerythrine)", "type": "biochemical", "conditions": "versus PKC alpha, PKC epsilon (MBP substrate), CaM-kinase II (Syntide)", "source_text": "PKCA is PKC alpha phosphorylation of myelin basic protein (MBP). PKCE is PKC epsilon phosphorylation of MBP. PKM is PKMζ phosphorylation of MBP. CKII is Ca^2+-calmodulin-dependent protein kinase II phosphorylation of Syntide® (Calbiochem, San Diego, Calif.) peptide substrate."}},
  "note": "Residues, ends and D or L forms follow the SMILES beside them.",
  "data": [
    {"compound": "CCCCCCCCCCCCCC(=O)N[C@@H](CO)C(=O)N[C@H](C(=O)N[C@@H](Cc1ccc(O)cc1)C(=O)N[C@@H](CCCNC(=N)N)C(=O)N[C@@H](CCCNC(=N)N)C(=O)NCC(=O)N[C@@H](C)C(=O)N[C@@H](CCCNC(=N)N)C(=O)N[C@@H](CCCNC(=N)N)C(=O)N[C@@H](Cc1c[nH]c2ccccc12)C(=O)N[C@@H](CCCNC(=N)N)C(=O)N[C@@H](CCCCN)C(=O)N[C@@H](CC(C)C)C(=O)O)[C@@H](C)CC", "note": "[MZIP, myr-Ser-Ile-Tyr-Arg-Arg-Gly-Ala-Arg-Arg-Trp-Arg-Lys-Leu-OH] (HELM PEPTIDE1{[CCCCCCCCCCCCCC(=O)[*:2]].S.I.Y.R.R.G.A.R.R.W.R.K.L}$$$$V2.0)", "values": [
      {"measurement": "effect on LTP maintenance", "setting": "LTP maintenance", "value": "reverses LTP maintenance"},
      {"measurement": "IC50", "setting": "PKMζ [1]", "value": "0.01 to 0.1", "unit": "µM"},
      {"measurement": "IC50", "setting": "PKC gamma", "value": 10, "unit": "µM"}
    ]},
    {"compound": "COc1ccc2c(c[n+](C)c3c4cc5c(cc4ccc23)OCO5)c1OC", "note": "[chelerythrine]", "values": [
      {"measurement": "reversal of PKMζ-induced increases in synaptically evoked AMPA/kainate responses", "setting": "[2]; 3 nM PKM in pipette, chelerythrine 1 uM in bath", "value": "reversible"},
      {"measurement": "selectivity as an inhibitor of PKM activity relative to other protein kinases", "setting": "PKMζ [3]", "value": "greater than 10 fold"}
    ]},
    {"compound": "PKMζ: independent catalytic domain of the PKCζ isoform, purified from a baculovirus/Sf9 expression system", "values": [
      {"measurement": "increase in AMPA/kainate EPSCs", "setting": "[2]; about 0.8 nM PKMζ in whole cell pipette, over 5-10 min, then stabilized, voltage-clamped ~-70", "value": "~60", "unit": "%"},
      {"measurement": "potency in potentiation of AMPA/kainate currents relative to CaM-kinase II", "setting": "[2]; compared with reported concentration of autoactive thiophosphorylated CaM-kinase II", "value": "200- to 1000 fold"}
    ]}
  ]
}
